Species on record: Rattus norvegicus
Test: DrugMatrix - Regimen: Daily Repeat
Assay type: toxicity, organism-based, Sprague-Dawley
Set-up: regimen Daily Repeat, gender Male, age 6-8 weeks
Conditions: in vivo, po, […], route oral GAVAGE, dose 0.043 mg/Kg, dose level High, vehicle .5 % CMC; for ABSOLUTE BASOPHIL / ABSOLUTE EOSINOPHIL / ABSOLUTE LYMPHOCYTE / ABSOLUTE MONOCYTE / ABSOLUTE SEGMENTED NEUTROPHIL / BASOPHIL / EOSINOPHIL / ERYTHROCYTE COUNT / HEMATOCRIT / HEMOGLOBIN / LEUKOCYTE COUNT / LYMPHOCYTE / MEAN CORPUSCULAR HEMOGLOBIN / MEAN CORPUSCULAR HEMOGLOBIN CONCENTRATION / MEAN CORPUSCULAR VOLUME / MONOCYTE / NEUTROPHIL / NUCLEATED RED BLOOD CELLS / PLATELET COUNT: tissue Blood; for ALANINE AMINOTRANSFERASE / ALBUMIN / ALKALINE PHOSPHATASE / ASPARTATE AMINOTRANSFERASE / BLOOD UREA NITROGEN / CARBON DIOXIDE / CHLORIDE / CHOLESTEROL / CREATINE PHOSPHOKINASE / CREATININE / GLUCOSE / LACTATE DEHYDROGENASE / LIPASE / PHOSPHORUS / POTASSIUM / SODIUM / TOTAL BILIRUBIN / TOTAL PROTEIN / URIC ACID: tissue Plasma

Structure (SMILES): C=C1/C(=C\C=C2/CCC[C@]3(C)[C@@H]([C@H](C)CCCC(C)C)CC[C@@H]23)C[C@@H](O)C[C@@H]1O [ALFACALCIDOL]
- ABSOLUTE BASOPHIL (72 h, time 3 day): 0 CELLS/uL
- ABSOLUTE EOSINOPHIL (72 h, time 3 day): 333 CELLS/uL
- ABSOLUTE LYMPHOCYTE (72 h, time 3 day): 10082 CELLS/uL
- ABSOLUTE MONOCYTE (72 h, time 3 day): 537.33 CELLS/uL
- ABSOLUTE SEGMENTED NEUTROPHIL (72 h, time 3 day): 2481 CELLS/uL
- BASOPHIL (72 h, time 3 day): 0%
- EOSINOPHIL (72 h, time 3 day): 2.33%
- ERYTHROCYTE COUNT (72 h, time 3 day): 6 x10E6/uL
- HEMATOCRIT (72 h, time 3 day): 36.53%
- HEMOGLOBIN (72 h, time 3 day): 13.9 G/DL
- LEUKOCYTE COUNT (72 h, time 3 day): 13.43 x10E3/uL
- LYMPHOCYTE (72 h, time 3 day): 74%
- MEAN CORPUSCULAR HEMOGLOBIN (72 h, time 3 day): 23.2 pg
- MEAN CORPUSCULAR HEMOGLOBIN CONCENTRATION (72 h, time 3 day): 38.07 G/DL
- MEAN CORPUSCULAR VOLUME (72 h, time 3 day): 60.97 fL
- MONOCYTE (72 h, time 3 day): 4%
- NEUTROPHIL (72 h, time 3 day): 19.67%
- NUCLEATED RED BLOOD CELLS (72 h, time 3 day): 0.33 /100WBC
- PLATELET COUNT (72 h, time 3 day): 1182 x10E3/uL
- ALANINE AMINOTRANSFERASE (72 h, time 3 day): 54.33 u/L
- ALBUMIN (72 h, time 3 day): 3.93 G/DL
- ALKALINE PHOSPHATASE (72 h, time 3 day): 234.67 u/L
- ASPARTATE AMINOTRANSFERASE (72 h, time 3 day): 99 u/L
- BLOOD UREA NITROGEN (72 h, time 3 day): 27.67 mg/dL
- CARBON DIOXIDE (72 h, time 3 day): 26.33 mmol/L
- CHLORIDE (72 h, time 3 day): 99.67 MEQ/L
- CHOLESTEROL (72 h, time 3 day): 75.33 mg/dL
- CREATINE PHOSPHOKINASE (72 h, time 3 day): 379.67 u/L
- CREATININE (72 h, time 3 day): 0.33 mg/dL
- GLUCOSE (72 h, time 3 day): 174.33 mg/dL
- LACTATE DEHYDROGENASE (72 h, time 3 day): 344 u/L
- LIPASE (72 h, time 3 day): 8.33 u/L
- PHOSPHORUS (72 h, time 3 day): 12.9 mg/dL
- POTASSIUM (72 h, time 3 day): 5.6 MEQ/L
- SODIUM (72 h, time 3 day): 142.27 MEQ/L
- TOTAL BILIRUBIN (72 h, time 3 day): 0.2 mg/dL
- TOTAL PROTEIN (72 h, time 3 day): 5.87 G/DL
- URIC ACID (72 h, time 3 day): 1.57 mg/dL
- ABSOLUTE BASOPHIL (120 h, time 5 day): 0 CELLS/uL
- ABSOLUTE EOSINOPHIL (120 h, time 5 day): 110 CELLS/uL
- ABSOLUTE LYMPHOCYTE (120 h, time 5 day): 15770.33 CELLS/uL
- ABSOLUTE MONOCYTE (120 h, time 5 day): 383.67 CELLS/uL
- ABSOLUTE SEGMENTED NEUTROPHIL (120 h, time 5 day): 2702.67 CELLS/uL
- BASOPHIL (120 h, time 5 day): 0%
- EOSINOPHIL (120 h, time 5 day): 1%
- ERYTHROCYTE COUNT (120 h, time 5 day): 6.37 x10E6/uL
- HEMATOCRIT (120 h, time 5 day): 38.77%
- HEMOGLOBIN (120 h, time 5 day): 14.5 G/DL
- LEUKOCYTE COUNT (120 h, time 5 day): 18.97 x10E3/uL
- LYMPHOCYTE (120 h, time 5 day): 83.33%
- MEAN CORPUSCULAR HEMOGLOBIN (120 h, time 5 day): 22.77 pg
- MEAN CORPUSCULAR HEMOGLOBIN CONCENTRATION (120 h, time 5 day): 37.43 G/DL
- MEAN CORPUSCULAR VOLUME (120 h, time 5 day): 60.83 fL
- MONOCYTE (120 h, time 5 day): 2%
- NEUTROPHIL (120 h, time 5 day): 13.67%
- NUCLEATED RED BLOOD CELLS (120 h, time 5 day): 0 /100WBC
- PLATELET COUNT (120 h, time 5 day): 1065.33 x10E3/uL
- ALANINE AMINOTRANSFERASE (120 h, time 5 day): 53.67 u/L
- ALBUMIN (120 h, time 5 day): 4.5 G/DL
- ALKALINE PHOSPHATASE (120 h, time 5 day): 245.67 u/L
- ASPARTATE AMINOTRANSFERASE (120 h, time 5 day): 109.33 u/L
- BLOOD UREA NITROGEN (120 h, time 5 day): 18 mg/dL
- CARBON DIOXIDE (120 h, time 5 day): 27 mmol/L
- CHLORIDE (120 h, time 5 day): 101.67 MEQ/L
- CHOLESTEROL (120 h, time 5 day): 74.33 mg/dL
- CREATINE PHOSPHOKINASE (120 h, time 5 day): 756 u/L
- CREATININE (120 h, time 5 day): 0.12 mg/dL
- GLUCOSE (120 h, time 5 day): 155.33 mg/dL
- LACTATE DEHYDROGENASE (120 h, time 5 day): 946.67 u/L
- LIPASE (120 h, time 5 day): 8.33 u/L
- PHOSPHORUS (120 h, time 5 day): 12.47 mg/dL
- POTASSIUM (120 h, time 5 day): 4.95 MEQ/L
- SODIUM (120 h, time 5 day): 144.83 MEQ/L
- TOTAL BILIRUBIN (120 h, time 5 day): 0.1 mg/dL
- TOTAL PROTEIN (120 h, time 5 day): 6.33 G/DL
- URIC ACID (120 h, time 5 day): 1.5 mg/dL

Reference: ChEMBL document CHEMBL3885881, “DrugMatrix”
